What was measured:
[1] = target: T1, WRN [UniPro: Q14191 (WRN_HUMAN), N500-C946] (Homo sapiens (Human), UniProt Q14191); assay: WRN ATPase assay (ADP-Glo); format: biochemical; conditions: WRN enzymatic activity assay
[2] = target: T1, WRN [UniPro: Q14191 (WRN_HUMAN), N500-C946]; assay: WRN unwinding assay (FORKF DNA, fluorescence); format: biochemical; conditions: Table 14

T1 sequence (Q14191 500-946): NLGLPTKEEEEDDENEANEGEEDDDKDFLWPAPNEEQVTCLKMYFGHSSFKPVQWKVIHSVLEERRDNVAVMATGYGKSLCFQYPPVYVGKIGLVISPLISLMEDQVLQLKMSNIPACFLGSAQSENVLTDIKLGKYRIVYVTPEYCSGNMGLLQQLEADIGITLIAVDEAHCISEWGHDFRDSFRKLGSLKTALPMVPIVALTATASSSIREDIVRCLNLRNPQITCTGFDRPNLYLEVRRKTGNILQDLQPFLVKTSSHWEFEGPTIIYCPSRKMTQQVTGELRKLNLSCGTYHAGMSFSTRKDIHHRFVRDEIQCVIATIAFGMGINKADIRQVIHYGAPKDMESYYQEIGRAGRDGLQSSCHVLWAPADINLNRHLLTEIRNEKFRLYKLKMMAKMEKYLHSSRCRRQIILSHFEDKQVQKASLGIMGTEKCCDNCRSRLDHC

Row | SMILES | IC50 [1] | IC50 [2]
1 | CCc1c(N2CCN(C(=O)CNC(=O)c3ccccc3F)CC2)c(=O)n2nc(C3=CCOCC3)nc2n1CC(=O)Nc1ccc(C(F)(F)F)cc1F [Example 149, N-(2-(4-(2-(3,6-Dihydro-2H-pyran-4-yl)-5-ethyl-4-(2-((2-fluoro-4-(trifluoromethyl)phenyl)amino)-2-oxoethyl)-7-oxo-4,7-dihydro-[1,2,4]triazolo[1,5-a]pyrimidin-6-yl)piperazin-1-yl)-2-oxoethyl)-2-fluorobenzamide] | < 100 nM | < 100 nM
2 | CCc1c(N2CCN(C(=O)CNC(=O)c3ccns3)CC2)c(=O)n2nc(C3=CCOCC3)nc2n1CC(=O)Nc1ccc(C(F)(F)F)cc1F [Example 219, N-(2-(4-(2-(3,6-Dihydro-2H-pyran-4-yl)-5-ethyl-4-(2-((2-fluoro-4-(trifluoromethyl)phenyl)amino)-2-oxoethyl)-7-oxo-4,7-dihydro-[1,2,4]triazolo[1,5-a]pyrimidin-6-yl)piperazin-1-yl)-2-oxoethyl)isothiazole-5-carboxamide] | < 100 nM | < 100 nM
3 | CCc1c(N2CCN(C(=O)CNC(=O)c3cc(N)ccc3F)CC2)c(=O)n2nc(C3=CCOCC3)nc2n1CC(=O)Nc1ccc(C(F)(F)F)cc1Cl [Example 372, 5-Amino-N-(2-(4-(4-(2-((2-chloro-4-(trifluoromethyl)phenyl)amino)-2-oxoethyl)-2-(3,6-dihydro-2H-pyran-4-yl)-5-ethyl-7-oxo-4,7-dihydro-[1,2,4]triazolo[1,5-a]pyrimidin-6-yl)piperazin-1-yl)-2-oxoethyl)-2-fluorobenzamide] | < 100 nM | < 100 nM
4 | CCc1c(N2CCN(C(=O)C(=O)Nc3nccs3)CC2)c(=O)n2nc(N3CCN4C(=O)OC[C@H]4C3)nc2n1CC(=O)Nc1ccc(C(F)(F)F)cc1F [Example 264, (R)-2-(4-(5-Ethyl-4-(2-((2-fluoro-4-(trifluoromethyl)phenyl)amino)-2-oxoethyl)-7-oxo-2-(3-oxotetrahydro-3H-oxazolo[3,4-a]pyrazin-7 (1H)-yl)-4,7-dihydro-[1,2,4]triazolo[1,5-a]pyrimidin-6-yl)piperazin-1-yl)-2-oxo-N-(thiazol-2-yl)acetamide] | < 100 nM | < 100 nM

The remaining lines, values ahead:

Row | IC50 [1] | IC50 [2] | SMILES
5 | < 100 nM | < 100 nM | CCOC(=O)NCC(=O)N1CCN(c2c(CC)n(CC(=O)Nc3ccc(C(F)(F)F)cc3Cl)c3nc(C4=CCOCC4)nn3c2=O)CC1 [Example 167, Ethyl (2-(4-(4-(2-((2-chloro-4-(trifluoromethyl)phenyl)amino)-2-oxoethyl)-2-(3,6-dihydro-2H-pyran-4-yl)-5-ethyl-7-oxo-4,7-dihydro-[1,2,4]triazolo[1,5-a]pyrimidin-6-yl)piperazin-1-yl)-2-oxoethyl)carbamate]
6 | < 100 nM | < 100 nM | CCc1c(N2CCN(C(=O)CNC(=O)c3ccc(F)c(NC)c3)CC2)c(=O)n2nc(C3=CCOCC3)nc2n1CC(=O)Nc1ccc(C(F)(F)F)cc1Cl [Example 285, N-(2-(4-(4-(2-((2-Chloro-4-(trifluoromethyl)phenyl)amino)-2-oxoethyl)-2-(3,6-dihydro-2H-pyran-4-yl)-5-ethyl-7-oxo-4,7-dihydro-[1,2,4]triazolo[1,5-a]pyrimidin-6-yl)piperazin-1-yl)-2-oxoethyl)-4-fluoro-3-(methylamino)benzamide]
7 | < 100 nM | 100 to 1000 nM | CCc1c(N2CCN(C(=O)C(C)NC(=O)c3ccccc3)CC2)c(=O)n2nc(C3=CCOCC3)nc2n1CC(=O)Nc1ccc(C(F)(F)F)cc1Cl (centres unmarked) [Example 136, N-(1-(4-(4-(2-((2-Chloro-4-(trifluoromethyl)phenyl)amino)-2-oxoethyl)-2-(3,6-dihydro-2H-pyran-4-yl)-5-ethyl-7-oxo-4,7-dihydro-[1,2,4]triazolo[1,5-a]pyrimidin-6-yl)piperazin-1-yl)-1-oxopropan-2-yl)benzamide]

Reference: patent US20260015358A1, “BICYCLIC DERIVATIVES, COMPOSITIONS AND USES THEREOF” (Danatlas Pharmaceuticals Co., Ltd., priority 2023, published 2026)
